Entries after “also recorded” stand apart in the source; their conditions may differ.
Assays:
NO = NO release from LPS-stimulated RAW264.7 cells (Griess reagent); type: cell-based, Mouse; settings: LPS 200 ng/mL; for inhibition rate of NO release: mean ± SD, n = 3
Method: (§1) RAW264.7 cells were cultured in DMEM medium containing 10% FBS and 1% double antibody at 37°C and 5% CO2 incubator. CCK-8 reagent was used for cell viability assay.
(§2) RAW264.7 cells (3 × 10^6 cells / mL) seeded into 12-well plates were pretreated with various concentrations of broccoli hydrolyzates or synthetic peptides for 2 h before stimulation by LPS (200 ng/mL). NO was determined using Griess reagent. TNF-α and IL-6 were measured by ELISA kits according to the manufacturer's instructions. More details of the assay are shown in Supplementary Table S2.

TNF-α [1] = system: TNF-α; parameters: method as in doi:10.1016/j.jff.2020.104044; settings: sturgeon protein peptide; cited from earlier work
IL-6 [2] = system: IL-6; parameters: method as in doi:10.1016/j.jff.2020.104044; settings: sturgeon protein peptide; cited from earlier work
IL-6 [3] = assay: IL-6 secretion by LPS-stimulated RAW264.7 cells (ELISA); type: cell-based, Mouse; settings: for effect on IL-6 production (in words): synthetic peptides 25, 50, 100 μM
Method: as §1, §2

TNF-α [4] = assay: TNF-α secretion by LPS-stimulated RAW264.7 cells (ELISA); type: cell-based, Mouse; settings: for inhibition rate on TNF-α / effect on TNF-α production (in words): LPS 200 ng/mL; for inhibition rate on TNF-α: mean ± SD, n = 3; for effect on TNF-α production (in words): synthetic peptides 25, 50, 100 μM
Method: as §1, §2

[5] = peptide concentration exceeding 25 μM

Row | Substance | effect on IL-6 production (in words) (IL-6 [3]; LPS 200 ng/mL) | inhibition rate on TNF-α (TNF-α [4]; synthetic peptide 100 μM) [%] | effect on TNF-α production (in words) (TNF-α [4]) | also measured
1 | DGRYW [synthetic peptide identified from broccoli hydrolysate] |  |  |  | inhibition rate of NO release (NO; synthetic peptide 100 μM): 53.94 ± 2.49%; effect on NO secretion (in words) (NO; synthetic peptides 25, 50, 100 μM): reduced NO content in inflammatory cells in a dose-dependent manner
2 | KIWHHFF |  |  |  | TNF-α inhibitory activity (in words) (TNF-α [1]): did not exhibit TNF-α inhibitory activity; inhibition of LPS-induced IL-6 secretion (in words) (IL-6 [2]): inhibited LPS-induced IL-6 secretion only at the lowest concentration
3 | ADLAHLPF [synthetic peptide identified from broccoli hydrolysate] | significantly inhibited | 73.19 ± 5.31 | significantly inhibited; also recorded: dose-dependently decreased TNF-α | 
4 | GDRW [synthetic peptide identified from broccoli hydrolysate] | significantly inhibited |  | significantly inhibited | 
5 | SIWYGPDRP [synthetic peptide identified from broccoli hydrolysate] |  |  |  | inhibition rate of NO release (NO; synthetic peptide 25 μM): 52.32 ± 1.48%
6 | CKVWPPLH |  | 73.83 ± 0.81 | dose-dependently decreased TNF-α | 
7 | KASFAFAGL [synthetic peptide identified from broccoli hydrolysate] |  |  |  | inhibitory activity on IL-6 secretion (in words) (IL-6 [3]; [5]): did not show inhibitory activity; inhibition rate on IL-6 (IL-6 [3]; synthetic peptide 25 μM (low dose), LPS 200 ng/mL, mean ± SD, n = 3): 29.84 ± 0.63%; inhibitory activity on TNF-α secretion (in words) (TNF-α [4]; [5]): did not show inhibitory activity; inhibition rate on TNF-α (TNF-α [4]; synthetic peptide 25 μM (low dose)): 43.59 ± 0.27%
8 | FGDFNPGGRL [synthetic peptide identified from broccoli hydrolysate] | only inhibited IL-6 at a concentration of 50 μM | 68.44 ± 5.63 | dose-dependently decreased TNF-α | 

Source: publication PMC9875028, “Identification and virtual screening of novel anti-inflammatory peptides from broccoli fermented by Lactobacillus strains” (Frontiers in Nutrition, 2023)
